Measured values from paper PMC3583093 (Evidence-based Complementary and Alternative Medicine : eCAM, 2013).
Values joined by “and” are separate entries in the source; they are usually repeats but may differ in a detail not shown here. Equal entries are not always repeated. “Also recorded” adds a separate entry of the source. Where two headings read alike, the source gives them in different places.

What was measured:
[1] = target: T1, human TYR (Homo sapiens, UniProt P14679); assay: In vitro TYR activity assay with lysates of HEK293-TYR cells; type: biochemical; conditions: for IC50: lysates of HEK293-TYR cells, read-out: IC50 against human TYR activity (converted)
T1 construct: expressed in transfected cells
T1 sequence (P14679 19-529): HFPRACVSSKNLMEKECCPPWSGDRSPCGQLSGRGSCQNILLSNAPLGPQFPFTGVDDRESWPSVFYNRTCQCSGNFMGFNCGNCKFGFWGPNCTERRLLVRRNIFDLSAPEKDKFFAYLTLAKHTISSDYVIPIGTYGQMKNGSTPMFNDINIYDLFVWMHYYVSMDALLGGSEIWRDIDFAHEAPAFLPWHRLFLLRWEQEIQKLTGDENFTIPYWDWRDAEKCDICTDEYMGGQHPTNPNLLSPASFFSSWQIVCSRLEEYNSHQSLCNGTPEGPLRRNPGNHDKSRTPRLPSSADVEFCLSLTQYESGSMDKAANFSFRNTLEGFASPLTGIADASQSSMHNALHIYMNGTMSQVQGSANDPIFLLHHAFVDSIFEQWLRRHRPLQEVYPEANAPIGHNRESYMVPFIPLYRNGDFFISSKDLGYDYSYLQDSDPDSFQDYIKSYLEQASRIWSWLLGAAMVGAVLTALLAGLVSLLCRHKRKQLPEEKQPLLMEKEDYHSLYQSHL

[2] = target: T2, murine TYR (Mus musculus, UniProt P11344); assay: In vitro TYR activity assay with lysates of murine B16/F10 cells; type: biochemical
T2 sequence (P11344 19-533): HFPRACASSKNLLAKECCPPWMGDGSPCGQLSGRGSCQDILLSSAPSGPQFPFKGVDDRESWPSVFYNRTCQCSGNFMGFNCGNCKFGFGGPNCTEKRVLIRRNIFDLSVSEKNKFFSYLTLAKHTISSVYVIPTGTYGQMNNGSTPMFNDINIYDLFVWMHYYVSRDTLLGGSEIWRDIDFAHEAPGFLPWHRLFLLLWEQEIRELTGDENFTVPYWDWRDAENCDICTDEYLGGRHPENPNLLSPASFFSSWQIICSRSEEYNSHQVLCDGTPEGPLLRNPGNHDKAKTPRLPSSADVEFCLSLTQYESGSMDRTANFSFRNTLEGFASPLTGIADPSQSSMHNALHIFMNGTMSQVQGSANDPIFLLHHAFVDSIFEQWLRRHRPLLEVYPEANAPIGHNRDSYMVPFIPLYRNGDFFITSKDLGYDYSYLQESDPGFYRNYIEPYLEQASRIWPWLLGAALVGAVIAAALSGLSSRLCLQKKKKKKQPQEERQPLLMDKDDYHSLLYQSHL

[3] = test system: mushroom TYR; assay: In vitro mushroom TYR activity assay; type: biochemical; conditions: compared with human and murine TYRs
Method: In vitro TYR assays were run for human, murine, and mushroom TYRs. The lysates of HEK293-TYR cells were used as a human TYR preparation in most experiments. In some experiments, the lysates of murine B16/F10 cells (Figure 5), HEK293 cells, and HEMs (Figure 6) were used for comparative purposes. Mushroom TYR was purchased from Sigma-Aldrich. The reaction mixture (200 μL) containing either cell lysates (40 μg protein) or mushroom TYR (20 U) and 0.5 mM L-tyrosine, 1 μM DOPA in 100 mM sodium phosphate buffer (pH 6.8) was placed on a 96-well microplate and incubated at 37°C. The formation of DOPA chrome was monitored by measuring absorbance at 490 nm with a BioRad Model 680 microplate reader (Bio-Rad Laboratories, Inc., Hercules, CA, USA). Assays were also run in the absence of TYR enzyme to correct for potential nonenzymatic reactions. Samples and reference inhibitors were included in reaction mixtures at different concentrations.

[4] = target: T1, human TYR; assay: In vitro TYR activity assay with lysates of HEMs; type: biochemical; conditions: read-out: IC50 against human TYR activity (converted)
Method: Human epidermal melanocytes (HEMs), derived from moderately pigmented neonatal foreskins, were obtained from Cascade Biologics (Portland, OR, USA). Cells were grown in Medium 254 supplemented with human melanocyte growth supplement (Cascade Biologics) and antibiotics. HEK293 cells and murine melanoma B16/F10 cells (CRL-6475) were obtained from the American Type Culture Collection (Manassas, VA, USA). HEK 293 cells were transformed into HEK293-TYR cells stably expressing human TYR, as previously described. HEK293 cells, HEK293-TYR cells, and murine melanoma B16/F10 cells were cultured in growth medium (Dulbecco's minimum Eagle's medium (DMEM) containing 10% fetal bovine serum and antibiotics (100 U mL^−1 penicillin, 0.1 mg mL^−1 streptomycin, and 0.25 µg mL^−1 amphotericin B)). Cells were cultured at 37°C in a humidified atmosphere containing 5% CO2 and 95% air. Cells were lysed in ice-cold lysis buffer (10 mM Tris-Cl, pH 7.4, 120 mM NaCl, 25 mM KCl, 2.0 mM EGTA, 1.0 mM EDTA, and 0.5% Triton X-100 and protease inhibitor cocktail) and centrifuged at 13,000 ×g for 15 min at 4°C to obtain clear supernatants which were used as cell lysates.
In vitro TYR assays were run for human, murine, and mushroom TYRs. […] The formation of DOPA chrome was monitored by measuring absorbance at 490 nm with a BioRad Model 680 microplate reader (Bio-Rad Laboratories, Inc., Hercules, CA, USA). […]

[5] = test system: human epidermal melanocytes (HEMs); assay: Melanin synthesis in HEMs stimulated by L-tyrosine; type: cell-based; conditions: 1.0 mM L-tyrosine, repeated treatment for 6 days
Method: (§1) Melanogenesis in HEMs was determined as previously described. Cells were pretreated with test material for 60 min, and then melanogenesis was stimulated by adding L-tyrosine (1.0 mM). Media were replaced every other day, and cells were cultured for 6 days. Intracellular melanin was extracted using 0.1 M NaOH at 60°C for 60 min, quantified by measuring absorbance at 490 nm, and normalized for protein content using the Bio-Rad DC assay. Cell viabilities were determined using 3-[4,5-dimethylthiazol-2-yl]-2,5-diphenyltetrazolium bromide.

[6] = test system: human epidermal melanocytes (HEMs); assay: Cell viability of HEMs (MTT); type: cell-based; conditions: repeated treatment for 6 days
Method: as §1

[7] = target: T2, murine TYR; set-up: method as in Kim et al. [29]; conditions: at 100 µM or 22.8 µg mL^−1; ref Kim et al. [29]; cited from earlier work
[8] = target: T2, murine TYR; set-up: method as in Yanagihara et al. [30]; conditions: ref Yanagihara et al. [30]; read-out: IC50 against murine TYR (converted); cited from earlier work
[9] = read-out: IC50 against murine TYR activity (converted)

inhibition of human TYR activity ([1]; at 10~30 µg mL^−1, lysates of HEK293-TYR cells and HEMs)	IC50 [1]	IC50 ([2]; dose-response curve at low concentration range, read-out: IC50 against murine TYR)	IC50 [2, 9]	IC50 [4]	Compound	effect on mushroom TYR activity [3]	effect on melanin synthesis in HEMs [5]	effect on melanin synthesis in HEMs ([5]; listed as Resveratrol)	concentration causing cytotoxicity in HEMs [6]	inhibition of murine TYR [7]	IC50 [8]	cytotoxic effect in HEMs ([6]; at 100 µM)
80~90%	1.71 µM and 1.7 µM	4.3 µM	4.38 µM	5.3 µM and 5.26 µM	Oc1ccc(/C=C/c2cc(O)cc(O)c2)cc1 [resveratrol]	much smaller effect on mushroom TYR activity; also recorded: very low	dose dependently attenuated; also recorded: reduce melanin synthesis in HEMs at subtoxic concentrations	inhibited melanin synthesis by human epidermal melanocytes at subtoxic concentrations	above 10 µM	32.7%	10.1 µM	
	4.02 µM		12.2 µM		O=C(O)/C=C/c1ccc(O)cc1 [p-coumaric acid, reference compound]		dose dependently attenuated					only a little cytotoxic effect
